From ChEMBL document CHEMBL5325497, “Facilitated Drug Repurposing with Artemisinin-Derived PROTACs: Unveiling PCLAF as a Therapeutic Target” (J Med Chem, 2023)
Active and inactive are the calls of the source. No cut-off for these calls is given here.

Assays:
RS4-11 [1] = assay: Antiproliferative activity against human RS4-11 cells assessed as cell growth inhibition incubated for 48 hrs by CCK8 colorimetric assay; type: functional, cell-based; settings: RS4-11, 48 h
RPMI-8226 = assay: Antiproliferative activity against human RPMI-8226 cells assessed as cell growth inhibition incubated for 48 hrs by CCK8 colorimetric assay; type: functional, cell-based; settings: RPMI-8226, 48 h
U-266 = assay: Antiproliferative activity against human U266B1 cells assessed as cell growth inhibition incubated for 48 hrs by CCK8 colorimetric assay; type: functional, cell-based; settings: U-266, 48 h
PCNA-associated factor = molecular target: T1, PCNA-associated factor (Homo sapiens, UniProt Q15004); assay: Binding affinity to PCLAF (unknown origin) assessed as equilibrium dissociation constant by SPR assay
T1 sequence (Q15004 whole entry): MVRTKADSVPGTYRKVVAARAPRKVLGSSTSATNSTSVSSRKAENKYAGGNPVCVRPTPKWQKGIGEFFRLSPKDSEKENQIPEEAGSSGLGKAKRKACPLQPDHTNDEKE

RS4-11 [2] = assay: Induction of apoptosis in human RS4-11 cells incubated for 48 hrs Annexin V-FITC/PI staining based flow cytometry analysis; type: functional, cell-based
RS4-11 [3] = assay: Induction of apoptosis in human RS4-11 cells assessed as increase in early apoptosis at 10 to 200 nM incubated for 48 hrs Annexin V-FITC/PI staining based flow cytometry analysis; type: functional, cell-based; settings: dose 10-200 nM
RS4-11 [4] = assay: Induction of apoptosis in human RS4-11 cells assessed as increase in late apoptosis at 10 to 200 nM incubated for 48 hrs Annexin V-FITC/PI staining based flow cytometry analysis; type: functional, cell-based; settings: dose 10-200 nM
RS4-11 [5] = assay: Induction of cell cycle arrest in human RS4-11 cells assessed as accumulation of cells at G1 phase incubated for 48 hrs by propidium iodide staining based flow cytometry analysis; type: functional
[6] = Toxicity in NOD/SCID mouse xenografted with human RS4-11 cells assessed as maximum tolerated dose at IV administration for 5 consecutive days; settings: in vivo
[7] = Toxicity in NOD/SCID mouse xenografted with human RS4-11 cells assessed as change in body weight at 25 mg/kg,iv qd administration for 5 consecutive days; type: organism-based; settings: in vivo
[8] = Toxicity in NOD/SCID mouse xenografted with human RS4-11 cells assessed as pathological change in heart at 25 mg/kg,iv qd administration for 5 consecutive days by hematoxylin and eosin staining based microscopic analysis; type: organism-based; settings: in vivo
[9] = Toxicity in NOD/SCID mouse xenografted with human RS4-11 cells assessed as pathological change in liver at 25 mg/kg,iv qd administration for 5 consecutive days by hematoxylin and eosin staining based microscopic analysis; type: organism-based; settings: in vivo
[10] = Toxicity in NOD/SCID mouse xenografted with human RS4-11 cells assessed as pathological change in kidney at 25 mg/kg,iv qd administration for 5 consecutive days by hematoxylin and eosin staining based microscopic analysis; type: organism-based; settings: in vivo
[11] = Oral bioavailability in Sprague-Dawley rat at 50 mg/kg measured upto 24 hrs by LC-MS/MS analysis; type: ADME, organism-based; settings: in vivo
RS4-11 [12] = assay: Antitumor activity against human RS4-11 cells xenografted in NOD/SCID mouse assessed as tumor growth inhibition at 1 mg/kg,iv administration for 5 consecutive days; type: functional, organism-based
RS4-11 [13] = assay: Antitumor activity against human RS4-11 cells xenografted in NOD/SCID mouse assessed as tumor growth inhibition at 5 mg/kg,iv administration for 5 consecutive days; type: functional, organism-based
RS4-11 [14] = assay: Antitumor activity against human RS4-11 cells xenografted in NOD/SCID mouse assessed as increase in survival day at IV administration for 5 consecutive days; type: functional
[15] = Toxicity in NOD/SCID mouse xenografted with human RS4-11 cells assessed as change in body weight at 1 mg/kg,iv qd administration for 5 consecutive days; type: organism-based; settings: in vivo
[16] = Toxicity in NOD/SCID mouse xenografted with human RS4-11 cells assessed as change in body weight at 5 mg/kg,iv qd administration for 5 consecutive days; type: organism-based; settings: in vivo
[17] = Toxicity in NOD/SCID mouse xenografted with human RS4-11 cells assessed as adverse effect at 1 mg/kg,iv qd administration for 5 consecutive days; type: organism-based; settings: in vivo
[18] = Toxicity in NOD/SCID mouse xenografted with human RS4-11 cells assessed as adverse effect at 5 mg/kg,iv qd administration for 5 consecutive days; type: organism-based; settings: in vivo
[19] = molecular target: T2, Protein cereblon/PCNA-associated factor (Homo sapiens, UniProt Q15004+Q96SW2); assay: PROTAC activity at CRBN/PCLAF in human RS4-11 cells assessed as degradation of PCLAF protein at 100 nM incubated for 12 hrs by Western blotting analysis; type: cell-based
Target sequence in this assay (Q96SW2 whole entry, looked up, one chain of several): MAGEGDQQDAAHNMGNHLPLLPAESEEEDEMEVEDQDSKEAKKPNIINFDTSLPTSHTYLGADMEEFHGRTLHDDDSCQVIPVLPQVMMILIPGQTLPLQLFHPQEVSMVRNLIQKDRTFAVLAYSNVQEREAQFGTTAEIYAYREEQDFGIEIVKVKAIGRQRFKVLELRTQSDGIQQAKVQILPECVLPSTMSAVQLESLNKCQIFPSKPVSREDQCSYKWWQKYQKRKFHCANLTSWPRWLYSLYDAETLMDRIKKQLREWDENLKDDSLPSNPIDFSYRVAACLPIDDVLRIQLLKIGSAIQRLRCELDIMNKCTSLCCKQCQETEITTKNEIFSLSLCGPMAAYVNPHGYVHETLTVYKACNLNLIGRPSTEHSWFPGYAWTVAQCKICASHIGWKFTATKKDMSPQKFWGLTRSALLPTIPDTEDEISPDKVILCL

[20] = molecular target: T2, Protein cereblon/PCNA-associated factor; assay: PROTAC activity at CRBN/PCLAF in human RS4-11 cells assessed as degradation of PCLAF protein at 100 nM incubated for 12 hrs in presence of MG132 by Western blotting analysis; type: cell-based
Target sequence in this assay (Q96SW2 whole entry, looked up, one chain of several): as above

[21] = molecular target: T2, Protein cereblon/PCNA-associated factor; assay: PROTAC activity at CRBN/PCLAF in human RS4-11 cells assessed as degradation of PCLAF protein by Western blotting analysis; type: cell-based
Target sequence in this assay (Q96SW2 whole entry, one chain of several): as the sequence (Q96SW2 whole entry, looked up, one chain of several) above

[22] = molecular target: T2, Protein cereblon/PCNA-associated factor; assay: PROTAC activity at CRBN/PCLAF in human RS4-11 cells assessed as maximal degradation of PCLAF protein by Western blotting analysis relative to control; type: cell-based
Target sequence in this assay (Q96SW2 whole entry, looked up, one chain of several): as above

[23] = molecular target: T2, Protein cereblon/PCNA-associated factor; assay: PROTAC activity at CRBN/PCLAF in human RS4-11 cells assessed as degradation of PCLAF protein at 4 hr by Western blotting analysis; type: cell-based
Target sequence in this assay (Q96SW2 whole entry, looked up, one chain of several): as above

[24] = molecular target: T2, Protein cereblon/PCNA-associated factor; assay: PROTAC activity at CRBN/PCLAF in human RS4-11 cells assessed as maximal degradation of PCLAF protein at 24 hr by Western blotting analysis; type: cell-based
Target sequence in this assay (Q96SW2 whole entry, looked up, one chain of several): as above

[25] = molecular target: T2, Protein cereblon/PCNA-associated factor; assay: PROTAC activity at CRBN/PCLAF in human RS4-11 cells assessed as degradation of PCLAF protein at 100 nM measured after 24 hr of compound washout by Western blotting analysis; type: cell-based
Target sequence in this assay (Q96SW2 whole entry, looked up, one chain of several): as above

[26] = molecular target: T2, Protein cereblon/PCNA-associated factor; assay: PROTAC activity at CRBN/PCLAF in human RS4-11 cells assessed as degradation of PCLAF protein at 100 nM incubated for 12 hrs in presence of SM1044 by Western blotting analysis; type: cell-based
[27] = molecular target: T2, Protein cereblon/PCNA-associated factor; assay: PROTAC activity at CRBN/PCLAF in human RS4-11 cells assessed as degradation of PCLAF protein at 100 nM incubated for 12 hrs in presence of pomalidomide by Western blotting analysis; type: cell-based
[28] = molecular target: T3, PCNA-associated factor (Homo sapiens) (UniProt Q15004); assay: Binding affinity to PCLAF in human RS4-11 cells assessed as thermal stability at 100 uM incubated for 60 mins by CETSA assay; type: cell-based
T3 sequence (whole entry): T1 sequence (Q15004 whole entry)

[29] = molecular target: T2, Protein cereblon/PCNA-associated factor; assay: PROTAC activity at CRBN/PCLAF in human RS4-11 cells assessed as degradation of PCLAF protein at 40 nM incubated for 40 mins by DARTS analysis; type: cell-based
[30] = molecular target: T2, Protein cereblon/PCNA-associated factor; assay: PROTAC activity at CRBN/PCLAF in human RS4-11 cells assessed as upregulation of p21 protein at 10 to 100 nM by Western blotting analysis; type: cell-based; settings: dose 10-100 nM
[31] = molecular target: T2, Protein cereblon/PCNA-associated factor; assay: PROTAC activity at CRBN/PCLAF in human RS4-11 cells assessed as downregulation of Rb phosphorylation at 10 to 100 nM by Western blotting analysis; type: cell-based; settings: dose 10-100 nM
[32] = molecular target: T2, Protein cereblon/PCNA-associated factor; assay: PROTAC activity at CRBN/PCLAF in human RS4-11 cells assessed as degradation of PCLAF protein at 10 to 100 nM by Western blotting analysis; type: cell-based; settings: dose 10-100 nM
RS4-11 [33] = assay: Induction of apoptosis in human RS4-11 cells assessed as downregulation of Bcl-2 level at 10 to 100 nM by Western blotting analysis; type: functional, cell-based; settings: dose 10-100 nM
RS4-11 [34] = assay: Induction of apoptosis in human RS4-11 cells assessed as upregulation of Bax level at 10 to 100 nM by Western blotting analysis; type: functional, cell-based; settings: dose 10-100 nM

C[C@@H]1CCC2[C@@H](C)[C@@H](OCCN(CCO[C@H]3O[C@@H]4O[C@@]5(C)CCC6[C@H](C)CCC([C@H]3C)[C@]64OO5)C(=O)CCCCCCNc3cccc4c3C(=O)N(C3CCC(=O)NC3=O)C4=O)O[C@@H]3O[C@@]4(C)CCC1[C@@]23OO4 (stereo partly drawn)
IC50 (RS4-11 [1]): 79.4 nM
IC50 (RPMI-8226): 104 nM
IC50 (U-266): 265 nM

C[C@H]1[C@@H](OCCNCCO[C@H]2O[C@@H]3O[C@]4(C)CC[C@H]5[C@H](C)CC[C@@H]([C@H]2C)[C@@]35OO4)O[C@@H]2O[C@]3(C)CC[C@H]4[C@H](C)CC[C@@H]1[C@@]24OO3
IC50 (RS4-11 [1]): 641 nM
IC50 (RPMI-8226): > 1000 nM
IC50 (U-266): > 1000 nM
Kd (PCNA-associated factor): 183000 nM

C[C@@H]1CCC2[C@@H](C)[C@@H](OCCN(CCO[C@H]3O[C@@H]4O[C@@]5(C)CCC6[C@H](C)CCC([C@H]3C)[C@]64OO5)C(=O)CCCCNc3cccc4c3C(=O)N(C3CCC(=O)NC3=O)C4=O)O[C@@H]3O[C@@]4(C)CCC1[C@@]23OO4 (stereo partly drawn)
IC50 (RS4-11 [1]): 243 nM
IC50 (RPMI-8226): > 1000 nM
IC50 (U-266): > 1000 nM

C[C@@H]1CCC2[C@@H](C)[C@@H](OCCN(CCO[C@H]3O[C@@H]4O[C@@]5(C)CCC6[C@H](C)CCC([C@H]3C)[C@]64OO5)C(=O)CCCCCNc3cccc4c3C(=O)N(C3CCC(=O)NC3=O)C4=O)O[C@@H]3O[C@@]4(C)CCC1[C@@]23OO4 (stereo partly drawn)
IC50 (RS4-11 [1]): 96.8 nM
IC50 (RPMI-8226): 148 nM
IC50 (U-266): 543 nM

C[C@@H]1CCC2[C@@H](C)[C@@H](OCCN(CCO[C@H]3O[C@@H]4O[C@@]5(C)CCC6[C@H](C)CCC([C@H]3C)[C@]64OO5)C(=O)CCCCCCCCNc3cccc4c3C(=O)N(C3CCC(=O)NC3=O)C4=O)O[C@@H]3O[C@@]4(C)CCC1[C@@]23OO4 (stereo partly drawn)
IC50 (RS4-11 [1]): 72.4 nM
IC50 (RPMI-8226): 322 nM
IC50 (U-266): 407 nM

C[C@@H]1CCC2[C@@H](C)[C@@H](OCCN(CCO[C@H]3O[C@@H]4O[C@@]5(C)CCC6[C@H](C)CCC([C@H]3C)[C@]64OO5)C(=O)CCCCCCCNc3cccc4c3C(=O)N(C3CCC(=O)NC3=O)C4=O)O[C@@H]3O[C@@]4(C)CCC1[C@@]23OO4 (stereo partly drawn)
IC50 (RS4-11 [1]): 50.6 nM
IC50 (RPMI-8226): 235 nM
IC50 (U-266): 343 nM
Activity (RS4-11 [2]): Dose-Dependent Effect
Activity (RS4-11 [3]): Active
Activity (RS4-11 [4]): Active
Activity (RS4-11 [5]): Dose-Dependent Effect
MTD at 5 days [6]: 25 mg/kg
Activity [7]: Non-Toxic
Activity [8]: Non-Toxic
Activity [9]: Non-Toxic
Activity [10]: Non-Toxic
bioavailability [11]: 24%
Activity (RS4-11 [12]): Active
Activity (RS4-11 [13]): Active
Activity (RS4-11 [14]): Dose-Dependent Effect
Activity [15]: Non-Toxic
Activity [16]: Non-Toxic
Activity [17]: Non-Toxic
Activity [18]: Non-Toxic
Activity [19]: Active
Activity [20]: inactive
DC50 [21]: 54.9 nM
Emax [22]: 95%
Activity [23]: Active
Activity [24]: Active
Activity [25]: inactive
Activity [26]: inactive
Activity [27]: inactive
Activity [28]: Active
Activity [29]: inactive
Kd (PCNA-associated factor): 6100 nM
Activity [30]: Active
Activity [31]: Active
Activity [32]: Active
Activity (RS4-11 [33]): Active
Activity (RS4-11 [34]): Active
